Source: EP4410284A1, “COMPOUND AND METHOD FOR THE TREATMENT OF ZELLWEGER SPECTRUM DISORDER” (Apteeus, priority 2023, dated 2024)
Like-named read-outs stand apart in the source and are kept apart here.

Experiments:
[1] = tested on: GM16513 cells; experiment: Catalase import immunofluorescence, high-content screening (% importing cells); type: cell-based, human; conditions: for EC50 / Emax: Homo sapiens, 72 h; for Emax: read-out: Max Efficacy (% Importing cells)
[2] = tested on: PEX405 cells; experiment: as above; type: cell-based, human; conditions: PEX405 cells, 3 days
[3] = tested on: GM16513 cells; type: cell-based; conditions: 3 days, PI positive cells (dead cells)
[4] = tested on: PEX405 cells; type: cell-based; conditions: 3 days, PI positive cells (dead cells)
[5] = GM16513 cells, dose response with 6 concentrations, 3 days, read-out: EC50
[6] = GM16513 cells, dose response with 6 concentrations, 3 days

Compound | % Importing cells ([1]; GM16513 cells, 1.3 µM, 3 days) | % Importing cells ([1]; GM16513 cells, 10 µM, 3 days) | % Importing cells ([2]; 1.3 µM) | % Importing cells ([2]; 10 µM) | % PI+ cells ([3]; 1.3 µM) | % PI+ cells ([3]; 10 µM) | % PI+ cells ([4]; 1.3 µM) | % PI+ cells ([4]; 10 µM) | EC50 [1, 5] | Emax [1, 6] | EC50 [1] | Emax [1]
COc1cc(C=CC(=O)O)cc(OC)c1O (stereo in doubt) [Sinapinic acid] | 21% | 18% | 3% | 3% | – | – | – | – | – | – | – | –
O=C(NO)c1cccc2ccccc12 [1-Naphthohydroxamic acid] | 12% | 13% | 3% | 2% | 1% | 1% | 0% | 0% | – | – | – | –
O=C(NO)c1cnc(NC2(c3ccccc3)CC2)nc1 [ACY-738] | 31% | 85% | 5% | 31% | 1% | 3% | 1% | 1% | – | – | – | –
O=C(NO)c1cnc(NC2(c3cccc(F)c3)CCCCC2)nc1 [ACY-775] | 21% | 47% | 4% | 9% | 2% | 2% | 0% | 1% | – | – | – | –
Nc1ccc(-c2cccs2)cc1NC(=O)c1ccc2nc(N3CCNCC3)ccc2c1 [ACY-957] | 74% | 0% | 16% | 13% | 1% | 38% | 1% | 55% | – | – | – | –
CC(C)(C)c1ccc(C(=O)Nc2ccc(C(=O)NO)cc2)cc1 [AES-350] | 22% | 45% | 5% | 10% | 2% | 5% | 1% | 1% | – | – | – | –
CC(=O)N[C@@H](CCCCN)C(=O)Nc1ccc2c(C)cc(=O)oc2c1 [Ac-Lys-AMC] | 18% | 14% | 3% | 1% | 1% | 1% | 0% | 0% | – | – | – | –
Nc1ccccc1NC(=O)c1cnccn1 [BG45] | 15% | 30% | 4% | 5% | 1% | 1% | 1% | 2% | – | – | – | –
Nc1ccccc1NC(=O)CCCCCCC(=O)Nc1ccccc1 [BML-210] | 24% | 73% | 7% | 19% | 2% | 3% | 1% | 1% | – | – | – | –
CC(=O)Nc1ccc(C(=O)Nc2ccc(F)cc2N)cc1 [BRD3308] | 12% | 16% | 4% | 5% | 2% | 2% | 1% | 1% | – | – | – | –
O=C(NO)c1cccc(C(=O)NCCc2ccccc2)c1 [BRD73954] | 19% | 23% | 3% | 4% | 1% | 1% | 0% | 1% | – | – | – | –
CCN1CCN(C(c2cccnc2)c2cc(Cl)c3cccnc3c2O)CC1 (stereo not shown) [BRD 4354] | 21% | 30% | 4% | 10% | 1% | 3% | 0% | 3% | – | – | – | –
CC(=O)Nc1ccc(C(=O)Nc2cc(-c3cccs3)ccc2N)cc1 [BRD-6929] | 66% | 88% | 20% | 38% | 1% | 3% | 1% | 1% | – | – | – | –
CCCCOc1ccc(CC(=O)NO)cc1 [Bufexamac] | 26% | 25% | 4% | 50% | 2% | 1% | 1% | 0% | – | – | – | –
CC(C)(C)OC(=O)Nc1ccc(-c2cc(C(=O)NCCCCCCC(=O)NO)no2)cc1 [CAY10603] | 73% | 85% | 22% | 11% | 2% | 31% | 1% | 35% | – | – | – | –
CCOC(=O)c1cnc(NC2(c3ccccc3)CC2)nc1 [CG347B] | 25% | 21% | 4% | 5% | 1% | 1% | 1% | 0% | – | – | – | –

Compound | % Importing cells ([1]; GM16513 cells, 1.3 µM, 3 days) | % Importing cells ([1]; GM16513 cells, 10 µM, 3 days) | % Importing cells ([2]; 1.3 µM) | % Importing cells ([2]; 10 µM) | % PI+ cells ([3]; 1.3 µM) | % PI+ cells ([3]; 10 µM) | % PI+ cells ([4]; 1.3 µM) | % PI+ cells ([4]; 10 µM) | EC50 [1, 5] | Emax [1, 6] | EC50 [1] | Emax [1]
O=C(NO)C(c1ccc(-c2ncc(C(F)(F)F)cn2)cc1)c1ccccc1F (stereo not shown) [CHDI-390576] | 10% | 4% | 2% | 0% | – | – | – | – | – | – | – | –
C#Cc1cccc(Nc2ncnc3cc(OC)c(OCCCCCCC(=O)NO)cc23)c1 [CUDC-101] | 60% | 90% | 23% | 49% | 2% | 23% | 1% | 44% | 700 nM | 100% | – | –
Cc1nn(C)cc1CN1CCC(c2ccc(C(=O)Nc3ccccc3N)cc2)CC1 [CXD101] | – | – | 19% | 4% | 2% | 7% | 0% | 8% | – | – | – | –
O=C(CCCCCCNC(=O)c1cnc(N(c2ccccc2)c2ccccc2Cl)nc1)NO [Citarinostat] | 47% | 90% | 9% | 53% | 1% | 4% | 0% | 2% | 3200 nM | 93% | – | –
Nc1ccccc1NC(=O)c1ccc(CCCC(=O)Nc2ccc([C@@H]3C[C@H]3N)cc2)cc1 [Corin] | 59% | 44% | 17% | 11% | 5% | 34% | 2% | 66% | – | – | – | –
Nc1[nH]c(=O)nc2c1ncn2[C@@H]1O[C@H](CO)[C@@H](O)[C@H]1O [Crotonoside] | 20% | 18% | 3% | 3% | 1% | 1% | 0% | 1% | – | – | – | –
O=C(/C=C/c1ccc(CN(CCO)CCc2c[nH]c3ccccc23)cc1)NO [Dacinostat] | 88% | 76% | 25% | 0% | 31% | 35% | 45% | 56% | – | – | – | –
Cn1cc(-c2ccc(S(=O)(=O)n3ccc(/C=C/C(=O)Nc4ccccc4N)c3)cc2)cn1 [Domatinostat] | 21% | 33% | 4% | 7% | 6% | 7% | 5% | 8% | 600 nM | 33% | – | –
Cc1cc(Cl)ccc1OCCCC(=O)NO [Droxinostat] | 12% | 23% | 3% | 4% | 1% | 1% | 0% | 2% | – | – | – | –
Cn1c(CCCCCCC(=O)NO)nc2cc(N(CCCl)CCCl)ccc21 [EDO-S101] | 35% | 89% | 7% | 55% | 2% | 8% | 1% | 7% | – | – | 3000 nM | 90%
Nc1ccccc1NC(=O)c1ccc(CNC(=O)OCc2cccnc2)cc1 [Entinostat] | 45% | 58% | 15% | 12% | 2% | 7% | 2% | 6% | 470 nM | 54% | – | –
Cl.O=C(NO)c1ccc(Cn2cc(-c3ccc(CN4CCCC4)cc3)nn2)cc1 [FNDR-20123] | 84% | 47% | 7% | 0% | 11% | 40% | 9% | 61% | – | – | – | –
CC1(C)c2cccc(C(=O)NO)c2CN1c1cnc(C(F)(F)F)cn1 [FT895] | 14% | 4% | 1% | 0% | 1% | 7% | 0% | 1% | – | – | – | –
Cc1ccc(C(=O)NCCCCCC(=O)Nc2ccccc2N)cc1 [RG2833] | – | – | – | – | 1% | 3% | – | – | – | – | – | –
Oxamflatin | 99% | 59% | 33% | 15% | – | – | – | – | – | – | – | –
